# Like-named read-outs stand apart in the source and are kept apart here.
# Assays:
# barnyardgrass = test: Test B pre-/postemergence herbicide test; type: in vivo, Echinochloa crus-galli; details: for pest or weed control at 125 g/ha / pest or weed control at 500 g/ha: Echinochloa crus-galli
# Procedure, shortened: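 Evaluation is visual, comparing treated with control plants on a scale where 0 means no effect and 100 means full control. Treatments were preemergence, or postemergence on seedlings 2–18 cm tall, and held 13–15 days in the greenhouse.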
# large crabgrass = test: Test B pre-/postemergence herbicide test; type: in vivo, Digitaria sanguinalis; details: for pest or weed control at 125 g/ha / pest or weed control at 500 g/ha: Digitaria sanguinalis
# Procedure, shortened: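 Flooded paddy rice and barnyardgrass were treated at the 2-leaf stage; upland plantings received compound either on sown seed or on 1- to 4-leaf seedlings. All were kept 13–15 days in a greenhouse and scored visually, 0–100, relative to untreated plants.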
# woolly cupgrass = test: Test C pre-/postemergence herbicide test; type: in vivo, Eriochloa villosa; details: for Cupgrass, Woolly plant response rating: Preemergence, scale 0 to 100, 0 no effect, 100 complete control
# Procedure, shortened: (§1)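 Visual injury scores run from 0 (no effect) to 100 (complete control), assessed relative to untreated controls 12 to 14 days after treatment in the greenhouse. Chemicals were formulated in a non-phytotoxic solvent mixture with surfactant and applied to soil after planting or to emerged plants at the 1- to 4-leaf stage.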
# johnsongrass = test: Test C pre-/postemergence herbicide test; type: in vivo, Sorghum halepense; details: for Johnsongrass plant response rating: Preemergence, scale 0 to 100, 0 no effect, 100 complete control
# Procedure, shortened: as §1
# lambsquarters = test: Test C pre-/postemergence herbicide test; type: in vivo, Chenopodium album; details: for Lambsquarters plant response rating: Preemergence, scale 0 to 100, 0 no effect, 100 complete control
# Procedure, shortened: as §1
# [1] = 125 g ai/ha, 0 is no effect, 100 is complete control, preemergence
# [2] = 125 g ai/ha, visual rating, scale 0 (no effect) to 100 (complete control), postemergence
# [3] = postemergence, 500 g ai/ha, scale 0 to 100, 0 is no effect, 100 is complete control
# [4] = 62 g ai/ha, preemergence, scale 0 to 100
# [5] = 250 g ai/ha, scale 0-100, preemergence
# [6] = 500 g ai/ha, scale 0 to 100 (0 no effect, 100 complete control), visual, 12 to 14 days, preemergence
# [7] = 125 g ai/ha, 0 = no effect, 100 = complete control, preemergence
# [8] = 500 g ai/ha, visual rating, 0 = no effect, 100 = complete control, preemergence
# [9] = 125 g ai/ha, scale 0 (no effect) to 100 (complete control), visual, 12 to 14 days, preemergence
# [10] = Postemergence, 500 g ai/ha, scale 0 (no effect) to 100 (complete control)
# [11] = 500 g ai/ha, visual rating 0-100, 0 no effect, 100 complete control, preemergence
# [12] = postemergence, 125 g ai/ha, visual rating, scale 0 (no effect) to 100 (complete control)
# [13] = postemergence, 500 g ai/ha, visual rating, scale 0 (no effect) to 100 (complete control)
Structure (SMILES),Barnyardgrass plant response rating (barnyardgrass; [2]),Barnyardgrass plant response rating (barnyardgrass; [3]),"Crabgrass, Large plant response rating (large crabgrass; [2])","Crabgrass, Large plant response rating (large crabgrass; [3])","Plant response rating, Cupgrass, Woolly (woolly cupgrass; [4])","Plant response rating, Cupgrass, Woolly (woolly cupgrass; [5])","Plant response rating, Cupgrass, Woolly (woolly cupgrass; [6])","Plant response rating, Johnsongrass (johnsongrass; [4])","Plant response rating, Johnsongrass (johnsongrass; [5])","Plant response rating, Johnsongrass (johnsongrass; [6])","Plant response rating, Lambsquarters (lambsquarters; [4])","Plant response rating, Lambsquarters (lambsquarters; [5])","Plant response rating, Lambsquarters (lambsquarters; [6])",Barnyardgrass plant response rating (0 to 100 scale) (barnyardgrass; [7]),"Plant response rating, Barnyardgrass (barnyardgrass; [8])","Crabgrass, Large plant response rating (0 to 100 scale) (large crabgrass; [7])","Plant response rating, Crabgrass, Large (large crabgrass; [8])","Plant response rating, Cupgrass, Woolly (woolly cupgrass; [9])","Plant response rating, Johnsongrass (johnsongrass; [9])","Plant response rating, Lambsquarters (lambsquarters; [9])",other results
CCc1nn(C(C)C)nc1C(=O)Nc1cccc(C(=O)N2CCCCC2)c1 [Compound 385],0,10,0,20,0,80,95,80,100,100,75,100,100,,,,,,,,"Plant response rating (0 to 100 scale), Barnyardgrass (barnyardgrass; [1]): 80; Plant response rating (0 to 100 scale), Crabgrass, Large (large crabgrass; [1]): 90; Plant response rating (0 = no effect, 100 = complete control), Cupgrass, Woolly (woolly cupgrass; 125 g ai/ha, preemergence): 60; Plant response rating (0 = no effect, 100 = complete control), Johnsongrass (johnsongrass; 125 g ai/ha, preemergence): 95; Plant response rating (0 = no effect, 100 = complete control), Lambsquarters (lambsquarters; 125 g ai/ha, preemergence): 100"
CCN1N=C(C(C)(C)C)CC1C(=O)Nc1cc(C(=O)N2CC=CC2)ccc1F (racemic) [Compound 310],0,20,10,30,5,70,,0,20,80,95,100,100,60,90,90,100,10,10,100,
CCNC(=S)c1cccc(NC(=O)c2nn(C(C)(C)C)nc2C)c1 [Compound 420],,,,,0,20,65,100,100,100,95,100,100,,,,,,,,"Plant response rating (0 to 100 scale), Barnyardgrass (barnyardgrass; [1]): 90; Barnyardgrass plant response rating (barnyardgrass; Postemergence, 125 g ai/ha, scale 0 (no effect) to 100 (complete control)): 20; Barnyardgrass plant response rating (barnyardgrass; [10]): 50; Plant response rating (0 to 100 scale), Crabgrass, Large (large crabgrass; [1]): 100; Crabgrass, Large plant response rating (large crabgrass; [10]): 40; Crabgrass, Large plant response rating (large crabgrass; postemergence, 125 g ai/ha, scale 0 to 100): 30; Plant response rating (0 = no effect, 100 = complete control), Cupgrass, Woolly (woolly cupgrass; 125 g ai/ha, preemergence): 10; Plant response rating (0 = no effect, 100 = complete control), Johnsongrass (johnsongrass; 125 g ai/ha, preemergence): 100; Plant response rating (0 = no effect, 100 = complete control), Lambsquarters (lambsquarters; 125 g ai/ha, preemergence): 100"
CCn1nc(C2(C)CC2)cc1C(=O)Nc1cc(C(=O)N2CC=CC2)ccc1F [Compound 301],20,60,20,60,10,70,90,30,85,95,100,100,100,60,100,100,100,50,,100,
CCn1nc(C(C)(C)C)cc1C(=O)Nc1ccc(OC)c(OC)c1 [Compound 298],10,50,20,70,5,30,60,20,60,90,100,100,100,70,90,100,100,10,40,100,
CCNC(=O)c1ccc(F)c(NC(=O)c2cn(C(C)(C)C)nc2CC)c1 [Compound 193],,,,,10,60,,60,90,,50,100,,90,,100,,40,85,100,"Plant response rating, Barnyardgrass (barnyardgrass; [11]): 100; Barnyardgrass plant response rating (barnyardgrass; [12]): 0; Barnyardgrass plant response rating (barnyardgrass; [13]): 10; Plant response rating, Crabgrass, Large (large crabgrass; [11]): 100; Crabgrass, Large plant response rating (large crabgrass; [12]): 10; Crabgrass, Large plant response rating (large crabgrass; [13]): 10; Cupgrass, Woolly plant response rating (woolly cupgrass; 500 g ai/ha): 70; Johnsongrass plant response rating (johnsongrass; 500 g ai/ha): 100; Lambsquarters plant response rating (lambsquarters; 500 g ai/ha): 100"
"CCn1nc(C(C)(C)C)cc1C(=O)Nc1cc(C(=O)N(C)C)ccn1 [Compound 156, 2-[[[3-(1,1-dimethylethyl)-1-ethyl-1H-pyrazol-5-yl]carbonyl]amino]-N,N-dimethyl-4-pyridinecarboxamide]",,,,,,,,,,,,,,,,,,,,,"pest or weed control at 125 g/ha (barnyardgrass; post-emergence, postemergence, 125 g ai/ha, visual rating, scale 0 (no effect) to 100 (complete control), read-out: Barnyardgrass plant response rating): 10%; pest or weed control at 500 g/ha (barnyardgrass; post-emergence, postemergence, 500 g ai/ha, visual rating, scale 0 (no effect) to 100 (complete control), read-out: Barnyardgrass plant response rating): 40%; pest or weed control at 500 g/ha (barnyardgrass; pre-emergence, 500 g ai/ha, visual rating 0-100, 0 no effect, 100 complete control, read-out: Plant response rating, Barnyardgrass): 100%; pest or weed control at 125 g/ha (barnyardgrass; pre-emergence, preemergence, 125 g ai/ha, 0 to 100 scale, 0 is no effect, 100 is complete control, read-out: Plant response rating, Barnyardgrass): 100%; pest or weed control at 125 g/ha (large crabgrass; post-emergence, postemergence, 125 g ai/ha, visual rating, scale 0 (no effect) to 100 (complete control), read-out: Crabgrass, Large plant response rating): 10%; pest or weed control at 500 g/ha (large crabgrass; post-emergence, postemergence, 500 g ai/ha, visual rating, scale 0 (no effect) to 100 (complete control), read-out: Crabgrass, Large plant response rating): 10%; pest or weed control at 500 g/ha (large crabgrass; pre-emergence, 500 g ai/ha, visual rating 0-100, 0 no effect, 100 complete control, read-out: Plant response rating, Crabgrass, Large): 100%; pest or weed control at 125 g/ha (large crabgrass; pre-emergence, preemergence, 125 g ai/ha, 0 to 100 scale, 0 is no effect, 100 is complete control, read-out: Plant response rating, Crabgrass, Large): 90%; pest or weed control at 62 g/ha (woolly cupgrass; Eriochloa villosa, pre-emergence, 312 h, 62 g ai/ha, preemergence, scale 0 to 100, read-out: Plant response rating, Cupgrass, Woolly): 33%; pest or weed control at 125 g/ha (woolly cupgrass; Eriochloa villosa, pre-emergence, 312 h, 125 g ai/ha, scale 0 (no effect) to 100 (complete control), visual, 12 to 14 days, read-out: Plant response rating, Cupgrass, Woolly): 70%; pest or weed control at 250 g/ha (woolly cupgrass; Eriochloa villosa, pre-emergence, 312 h, 250 g ai/ha, scale 0 to 100 (0 no effect, 100 complete control), visual, 12 to 14 days, read-out: Plant response rating, Cupgrass, Woolly): 80%; Cupgrass, Woolly plant response rating (woolly cupgrass; 500 g ai/ha): 90; Johnsongrass plant response rating (johnsongrass; 500 g ai/ha): 100; pest or weed control at 62 g/ha (johnsongrass; Sorghum halepense, pre-emergence, 62 g ai/ha, preemergence, scale 0 to 100, read-out: Plant response rating, Johnsongrass): 80%; pest or weed control at 125 g/ha (johnsongrass; Sorghum halepense, pre-emergence, 125 g ai/ha, scale 0 (no effect) to 100 (complete control), visual, 12 to 14 days, read-out: Plant response rating, Johnsongrass): 85%; pest or weed control at 62 g/ha (lambsquarters; Chenopodium album, pre-emergence, 62 g ai/ha, preemergence, scale 0 to 100, read-out: Plant response rating, Lambsquarters): 100%; pest or weed control at 125 g/ha (lambsquarters; Chenopodium album, pre-emergence, 125 g ai/ha, scale 0 (no effect) to 100 (complete control), visual, 12 to 14 days, read-out: Plant response rating, Lambsquarters): 100%; Lambsquarters plant response rating (lambsquarters; 500 g ai/ha): 100"
